According to the NIST ThermoML archive (doi:10.1021/je400055v):
± gives the expanded uncertainty stated by the source.

Experiment: xn = mol fraction of the nth substance listed
Conditions: Liquid, Vibrating tube method

With `CCCCCCCCCCC` [undecane] + CCCCCCC the mass density (362.92 K, 3000 kPa, x2 = 0.05) was 688.7 ± 0.3 kg/m3, the mass density (362.92 K, 4000 kPa, x2 = 0.05) was 689.8 ± 0.3 kg/m3 and the mass density (362.92 K, 5000 kPa, x2 = 0.05) was 690.9 ± 0.3 kg/m3. It also gave a mass density (362.92 K, 6000 kPa, x2 = 0.05) of 692 ± 0.3 kg/m3, a mass density (362.92 K, 7000 kPa, x2 = 0.05) of 693 ± 0.3 kg/m3 and a mass density (362.92 K, 8001 kPa, x2 = 0.05) of 694.1 ± 0.3 kg/m3. The mass density (362.92 K, 9000 kPa, x2 = 0.05) was 695.1 ± 0.3 kg/m3, the mass density (362.92 K, 10000 kPa, x2 = 0.05) was 696.1 ± 0.3 kg/m3 and the mass density (362.92 K, 11000 kPa, x2 = 0.05) was 697.1 ± 0.3 kg/m3. The mass density (362.92 K, 12000 kPa, x2 = 0.05) was 698.1 ± 0.3 kg/m3, the mass density (362.92 K, 13000 kPa, x2 = 0.05) was 699.1 ± 0.4 kg/m3 and the mass density (362.92 K, 14000 kPa, x2 = 0.05) was 700 ± 0.4 kg/m3. It also gave a mass density (362.92 K, 15000 kPa, x2 = 0.05) of 701 ± 0.4 kg/m3, a mass density (362.92 K, 16000 kPa, x2 = 0.05) of 701.9 ± 0.4 kg/m3 and a mass density (362.92 K, 17000 kPa, x2 = 0.05) of 702.8 ± 0.4 kg/m3. It also gave a mass density (362.92 K, 18000 kPa, x2 = 0.05) of 703.7 ± 0.4 kg/m3, a mass density (362.92 K, 19000 kPa, x2 = 0.05) of 704.6 ± 0.4 kg/m3 and a mass density (362.92 K, 20000 kPa, x2 = 0.05) of 705.5 ± 0.4 kg/m3. For the same compound, the mass density (362.92 K, 21000 kPa, x2 = 0.05) was 706.4 ± 0.4 kg/m3, the mass density (362.92 K, 22001 kPa, x2 = 0.05) was 707.3 ± 0.4 kg/m3 and the mass density (362.92 K, 23000 kPa, x2 = 0.05) was 708.1 ± 0.4 kg/m3. For the same compound, the mass density (362.92 K, 24000 kPa, x2 = 0.05) was 708.9 ± 0.4 kg/m3, the mass density (362.92 K, 25000 kPa, x2 = 0.05) was 709.8 ± 0.4 kg/m3 and the mass density (362.94 K, 2001 kPa, x2 = 0.5063) was 664.4 ± 0.3 kg/m3. For the same compound, the mass density (362.94 K, 3000 kPa, x2 = 0.5063) was 665.6 ± 0.3 kg/m3, the mass density (362.94 K, 4000 kPa, x2 = 0.5063) was 666.8 ± 0.3 kg/m3 and the mass density (362.94 K, 5000 kPa, x2 = 0.5063) was 668 ± 0.3 kg/m3. The mass density (362.94 K, 6000 kPa, x2 = 0.5063) was 669.2 ± 0.3 kg/m3, the mass density (362.94 K, 7000 kPa, x2 = 0.5063) was 670.4 ± 0.3 kg/m3 and the mass density (362.94 K, 8001 kPa, x2 = 0.5063) was 671.5 ± 0.3 kg/m3. It also gave a mass density (362.94 K, 9000 kPa, x2 = 0.5063) of 672.6 ± 0.3 kg/m3, a mass density (362.94 K, 10000 kPa, x2 = 0.5063) of 673.8 ± 0.3 kg/m3 and a mass density (362.94 K, 11000 kPa, x2 = 0.5063) of 674.8 ± 0.3 kg/m3. The mass density (362.94 K, 12000 kPa, x2 = 0.5063) was 675.9 ± 0.4 kg/m3, the mass density (362.94 K, 13000 kPa, x2 = 0.5063) was 677 ± 0.4 kg/m3 and the mass density (362.94 K, 14000 kPa, x2 = 0.5063) was 678 ± 0.4 kg/m3. For the same compound, the mass density (362.94 K, 15000 kPa, x2 = 0.5063) was 679.1 ± 0.4 kg/m3, the mass density (362.94 K, 16000 kPa, x2 = 0.5063) was 680.1 ± 0.4 kg/m3 and the mass density (362.94 K, 17001 kPa, x2 = 0.5063) was 681.1 ± 0.4 kg/m3. For the same compound, the mass density (362.94 K, 18000 kPa, x2 = 0.5063) was 682.1 ± 0.4 kg/m3, the mass density (362.94 K, 19000 kPa, x2 = 0.5063) was 683.1 ± 0.4 kg/m3 and the mass density (362.94 K, 20000 kPa, x2 = 0.5063) was 684 ± 0.4 kg/m3. The mass density (362.94 K, 21001 kPa, x2 = 0.5063) was 685 ± 0.4 kg/m3, the mass density (362.94 K, 22050 kPa, x2 = 0.5063) was 685.9 ± 0.4 kg/m3 and the mass density (362.94 K, 23000 kPa, x2 = 0.5063) was 686.9 ± 0.5 kg/m3. For the same compound, the mass density (362.94 K, 24000 kPa, x2 = 0.5063) was 687.8 ± 0.5 kg/m3 and the mass density (362.94 K, 25000 kPa, x2 = 0.5063) was 688.7 ± 0.5 kg/m3.
